In US8017124B2, “Use of DMBT1 for capturing sulphate and phosphate group exposing agents” (priority 2004, dated 2011):
Like-named read-outs stand apart in the source and are kept apart here.

Key:
[1] = molecular target: T1, human recombinant DMBT1 (rDMBT1) (Homo sapiens, UniProt Q9UGM3, G1295S/L1336F/T649M); assay: Turbidometric competition assay, rDMBT1-mediated Streptococcus gordonii aggregation; format: binding; details: 0.32% to 2.50% (w/v) DSS; 0.28% to 0.84% degraded carrageenan; rDMBT1 15 μg/ml
T1 construct: made in house; purified from culture supernatant
Experimental: (§1) Streptococcus gordonii (strain: […]) was cultured under anaerobic conditions as described before^17, harvested by centrifugation at 3,000 g, washed twice with PBS containing 10 mM EDTA and once with PBS and finally resuspended in PBS to a final OD700 of 2.0 corresponding to about 2.0×10^9 cells/ml, respectively.
(§2) Competition assays were carried out in a final volume of 500 μl at RT. Streptococcus gordonii (250 μl in PBS) was mixed with 100 μl synthetic peptide DMBT1-SRCRP2 diluted 1:1 in PBS (final concentration in the assay: 100 μg/ml) or 100 μl purified rDMBT1 in PBS (final concentration in the assay: 15 μg/ml) and 150 μl of the respective competitor stock solutions, so that the final concentrations ranged from 0.32% to 2.50% (w/v) DSS and 0.28% to 0.84% […] degraded carrageenan. Samples with 0.0% competitor served as controls. The samples were placed in a spectrophotometer (Anthelie; SECOMAN, France) and the OD700-value was measured in intervals of 3 minutes. Each experiment was at least done in triplicate. For the DSS competition studies, we used the same DSS as in the animal experiments (Mr=36-50 kDa; ICN Biomedicals Aurora). High molecular weight lambda carrageenan was obtained from Sigma (Taufkirchen; Germany). […]

DMBT1pbs1 = molecular target: T2, DMBT1pbs1 (Homo sapiens, UniProt Q9UGM3); format: binding; design: key: +++: no difference in aggregation compared to reference; ++: moderate inhibition of aggregation over the entire time course or maximal aggregation delayed by 1-5-min compared to reference; +: strong inhibition of aggregation over the entire time course or maximal aggregation delayed by 5-10 min compared to reference; −: complete inhibition of aggregation after 10 min; details: pH co
T2 construct: purchased Eurogentec, Belgium
Experimental: Streptococcus mutans (Ingbritt), Streptococcus gordonii (HG 222 and DSM20568), Escherichia coli (F7 and OM36-1), and Helicobacter pylori (ATCC 43504) were gown and processed as described earlier. Salmonella typhimurium (strain SF1399: wild type; strain SF1195: Rc chemotype; strain SF1567: Rd1 chemotype; strain SF1398: Re chemotype) were kindly provided by Dr. Ben Appelmelk from the Free University of Amsterdam, The Netherlands, and were grown and processed as previously described for E. coli. The bacteria were diluted in the buffers depicted previously to a final OD700 of 0.5 or 1.0 corresponding to about 0.5 and 1.0×10^9 cells/ml respectively.
For quantitative measurements of bacterial aggregation, we added 200 μl peptide stock solution (1 mg/ml in 10% DMSO) diluted with 300 μl TBS containing 0.1% v/v Tween 20 and 1 mM CaCl2 (TBS-TC) to 500 μl of the respective bacterial suspensions to obtain final peptide concentrations of […]. As controls, we used bacterial suspensions, to which 200 μl 10% (v/v %) DMSO in H2O and 300 μl TBS-TC were added. Bacterial aggregation was monitored by measuring the optical density at 700 nm in intervals of 1 min for 1 h in a spectrophotometer (UVICON 930, Kontron Instruments). For the semi-quantitative high-throughput competition assays, we first determined the allowed pH range for DMBT1pbs1-mediated aggregation of S. gordonii and E. coli by using TBS-TC adjusted with either HCl or NaOH. […] For monitoring competitive effects, we preincubated 20 μl of the DMBT1pbs1 stock solution (20 μg) with 20 μl of the respective substance solutions in 48-well microtiter plates at room temperature (RT) for 2 min. As reference served 20 μl 10% (v/v) DMSO solution in H2O mixed with 20 μl of the solvents of the respective substances. Afterwards, 100 μl of S. gordonii or E. coli (resuspended in TBS-TC or TBS-T, respectively, for the calcium-free assays) solution was added simultaneously to each well using a multichannel pipette. Bacterial aggregation was compared to the reference by visual inspection over a time course of 10 min. The scoring system was: (+++) no difference in aggregation compared to reference. (++) moderate inhibition of aggregation over the entire time course or maximal aggregation delayed by 1-5-min compared to reference; (+) strong inhibition of aggregation over the entire time course or maximal aggregation delayed by 5-10 min compared to reference; (−) complete inhibition of aggregation after 10 min. Each experiment was at least done in triplicate.
Sucrose, maltose, dextrose, and the various salts tested were standard reagents obtained from Merck or Sigma. […] The following substances were obtained from Sigma with catalogue numbers in brackets: heparansulfate (H-7640), chondroitinsulfate B (C-3788), azoxymethane (A-9517), N-nitrosodiethlylamine (N-0258), streptococcus sanguis LTA (L-3765), Staphylococcus aureus LTA (L-2515), Escherichia coli LPS (L-3012), Klebsiella pneumoniae LPS (L-1770), Salmonella typhimurium LPS (L-6511), Salmonella minnesota LPS (chemotype Rd1; L-9391), L-α-phosphatidylcholine (P-279), CUROSURF™ with 80 mg/ml phospholipids from pig surfactant (54 mg/ml phosphatidylcholine and 30-5 mg/ml D-palmitoylphosphatidylcholine; overall: 99% polar phospholipids and 1% proteins) was obtained from Dey (Napa; Italy), and sIgA was purchased from Sigma. The dNTPs and the dNTP-Mix were from Roche Diagnostics. The DNA used in all experiments was the 4.7-kb plasmid pEGFP-N1 from Clontech.

DMBT1-SRCRP2 = molecular target: T3, DMBT1-SRCRP2 (Homo sapiens, UniProt Q9UGM3); assay: Turbidometric competition assay, DMBT1-SRCRP2-mediated bacterial aggregation; format: binding; details: 0.32% to 2.50% (w/v) DSS; 0.28% to 0.84% degraded carrageenan; peptide 100 μg/ml
T3 construct: purity >85%); purchased Eurogentec (Belgium); host or cells: chemical synthesis
Experimental: as §1, §2

human rDMBT1 = molecular target: T4, human rDMBT1 (Homo sapiens, UniProt Q9UGM3, G1295S/L1336F/T649M); assay: Binding of human rDMBT1 to immobilized DSS and degraded lambda carrageenan; details: rDMBT1 10 μg/ml; immobilized substance
T4 construct: made in house; purified from culture supernatant
Experimental: DSS was serially diluted in coating buffer (100 mM carbonate buffer, pH 9.6) to obtain final concentrations of 2.5% to 0.02% (w/v). One hundred μl of the samples were applied onto ELISA plates (Microlon, F-Form; Greiner, Germany) and coating was done at 4° C. for 16 h. Acid hydrolyzed and pH-adjusted lambda carrageenan was serially diluted with the solvent (approximately 50 mM HCl and 50 mM NaOH) to obtain concentrations ranging from 2.8% to 0.0055% […] and coating of ELISA plates was done at 37° C. for 2 h. After coating and three washes with TBS containing 0.1% (v/v) Tween 20 (TBS-T), rDMBT1 (10 μg/ml in TBS-T) was added to each well and incubated at 37° C. for 1 h. The wells were then washed five times with 200 μl TBS-T, incubated at 37° C. for 1 h with the DMBT1-specific mouse monoclonal antibody anti(A2) gp-340 (Hyb213-06; Antibody-Shop; dilution 1:10,000 in TBS-T), washed again five-times with TBS-T, and incubated at 37° C. for 1 h with a rabbit anti-mouse IgG-HRP conjugate (Jackson; dilution 1:10,000 in TBS-T). Subsequent to five washes with TBS-T, 150 μl substrate (125 μg/ml 3,3′,5′-Tetramethyl-benzidine; in 0.1 M citrate buffer pH 4.5 with 0.05% (v/v) H2O2) were added, and after incubation at RT for 10-15 min the reaction was stopped by addition of […] 2 M HCl. The intensity of the dye reaction was measured at 450 nm in an ELISA reader (EL800; Bio-Tec Instruments Inc.). […]

[2] = molecular target: T5, rDMBT1 binding to HIV-gp120 (Homo sapiens, UniProt Q9UGM3, G1295S/L1336F/T649M); assay: Effects of DSS and dextran on rDMBT1 binding to HIV-gp120; details: 100 μg/ml DSS or dextran; rDMBT1 2 μg/ml; gp120 1 μg/ml
T5 construct: made in house; host or cells: rDMBT1 from T-REx-CHO
Text: Values are means of five independent experiments.

DMBT1 = molecular target: T6, DMBT1 (Homo sapiens, UniProt Q9UGM3); assay: Binding of DMBT1/rDMBT1 to immobilized candidate substances (ELISA); details: substance immobilized; DMBT1 or rDMBT1 10 μg/ml
T6 construct: was obtained from parotid saliva of healthy volunteer donors collected with Lashley cups; from tissue; host or cells: parotid saliva of healthy volunteer donors, purified to about 95% homogeneity
Experimental: For the peptide binding studies we used, unless otherwise indicated, 20 μg/ml peptide in a total volume of 100 μl (dilution in coating buffer, 100 mM carbonate buffer, pH 9.6) for the coating of high affinity ELISA plates (Microlon, Fluotrac 600; Greiner). When immobilizing rDMBT1, purified, partially purified DMBT1 or substances to be tested, we applied serial dilutions in coating buffer onto the plates. Coating was done at 4° C. for 16 h and was followed by three washes with PBS-T with 1 mM CaCl2 (PBS-TC). For the analysis of bacterial binding to immobilized peptides or protein, we incubated the wells with 100 μl bacterial solution at 37° C. for 2 h. After removal of unbound bacteria, 100 μl of SYTO-9 solution (Molecular Probes), which is a cell-permeable fluorescent DNA dye, was added, plates were incubated in the dark for 15 min and after three washes with PBS-TC, fluorescence was measured by determination of the emission at 535 nm with a microtiter plate reader (488 n=excitation; Fluostar Galaxy, BMG Laboratories). DNA binding to immobilized DMBT1 was analyzed by using the same plasmid (LPS-free preparation) as used for the competitive aggregation and transfection assays (see below). Bound DNA was detected analogous to detection of bacteria except for using SYTQ-13 as dye. […]

T1 sequence (Q9UGM3 20-2413 T649M/G1295S/L1336F): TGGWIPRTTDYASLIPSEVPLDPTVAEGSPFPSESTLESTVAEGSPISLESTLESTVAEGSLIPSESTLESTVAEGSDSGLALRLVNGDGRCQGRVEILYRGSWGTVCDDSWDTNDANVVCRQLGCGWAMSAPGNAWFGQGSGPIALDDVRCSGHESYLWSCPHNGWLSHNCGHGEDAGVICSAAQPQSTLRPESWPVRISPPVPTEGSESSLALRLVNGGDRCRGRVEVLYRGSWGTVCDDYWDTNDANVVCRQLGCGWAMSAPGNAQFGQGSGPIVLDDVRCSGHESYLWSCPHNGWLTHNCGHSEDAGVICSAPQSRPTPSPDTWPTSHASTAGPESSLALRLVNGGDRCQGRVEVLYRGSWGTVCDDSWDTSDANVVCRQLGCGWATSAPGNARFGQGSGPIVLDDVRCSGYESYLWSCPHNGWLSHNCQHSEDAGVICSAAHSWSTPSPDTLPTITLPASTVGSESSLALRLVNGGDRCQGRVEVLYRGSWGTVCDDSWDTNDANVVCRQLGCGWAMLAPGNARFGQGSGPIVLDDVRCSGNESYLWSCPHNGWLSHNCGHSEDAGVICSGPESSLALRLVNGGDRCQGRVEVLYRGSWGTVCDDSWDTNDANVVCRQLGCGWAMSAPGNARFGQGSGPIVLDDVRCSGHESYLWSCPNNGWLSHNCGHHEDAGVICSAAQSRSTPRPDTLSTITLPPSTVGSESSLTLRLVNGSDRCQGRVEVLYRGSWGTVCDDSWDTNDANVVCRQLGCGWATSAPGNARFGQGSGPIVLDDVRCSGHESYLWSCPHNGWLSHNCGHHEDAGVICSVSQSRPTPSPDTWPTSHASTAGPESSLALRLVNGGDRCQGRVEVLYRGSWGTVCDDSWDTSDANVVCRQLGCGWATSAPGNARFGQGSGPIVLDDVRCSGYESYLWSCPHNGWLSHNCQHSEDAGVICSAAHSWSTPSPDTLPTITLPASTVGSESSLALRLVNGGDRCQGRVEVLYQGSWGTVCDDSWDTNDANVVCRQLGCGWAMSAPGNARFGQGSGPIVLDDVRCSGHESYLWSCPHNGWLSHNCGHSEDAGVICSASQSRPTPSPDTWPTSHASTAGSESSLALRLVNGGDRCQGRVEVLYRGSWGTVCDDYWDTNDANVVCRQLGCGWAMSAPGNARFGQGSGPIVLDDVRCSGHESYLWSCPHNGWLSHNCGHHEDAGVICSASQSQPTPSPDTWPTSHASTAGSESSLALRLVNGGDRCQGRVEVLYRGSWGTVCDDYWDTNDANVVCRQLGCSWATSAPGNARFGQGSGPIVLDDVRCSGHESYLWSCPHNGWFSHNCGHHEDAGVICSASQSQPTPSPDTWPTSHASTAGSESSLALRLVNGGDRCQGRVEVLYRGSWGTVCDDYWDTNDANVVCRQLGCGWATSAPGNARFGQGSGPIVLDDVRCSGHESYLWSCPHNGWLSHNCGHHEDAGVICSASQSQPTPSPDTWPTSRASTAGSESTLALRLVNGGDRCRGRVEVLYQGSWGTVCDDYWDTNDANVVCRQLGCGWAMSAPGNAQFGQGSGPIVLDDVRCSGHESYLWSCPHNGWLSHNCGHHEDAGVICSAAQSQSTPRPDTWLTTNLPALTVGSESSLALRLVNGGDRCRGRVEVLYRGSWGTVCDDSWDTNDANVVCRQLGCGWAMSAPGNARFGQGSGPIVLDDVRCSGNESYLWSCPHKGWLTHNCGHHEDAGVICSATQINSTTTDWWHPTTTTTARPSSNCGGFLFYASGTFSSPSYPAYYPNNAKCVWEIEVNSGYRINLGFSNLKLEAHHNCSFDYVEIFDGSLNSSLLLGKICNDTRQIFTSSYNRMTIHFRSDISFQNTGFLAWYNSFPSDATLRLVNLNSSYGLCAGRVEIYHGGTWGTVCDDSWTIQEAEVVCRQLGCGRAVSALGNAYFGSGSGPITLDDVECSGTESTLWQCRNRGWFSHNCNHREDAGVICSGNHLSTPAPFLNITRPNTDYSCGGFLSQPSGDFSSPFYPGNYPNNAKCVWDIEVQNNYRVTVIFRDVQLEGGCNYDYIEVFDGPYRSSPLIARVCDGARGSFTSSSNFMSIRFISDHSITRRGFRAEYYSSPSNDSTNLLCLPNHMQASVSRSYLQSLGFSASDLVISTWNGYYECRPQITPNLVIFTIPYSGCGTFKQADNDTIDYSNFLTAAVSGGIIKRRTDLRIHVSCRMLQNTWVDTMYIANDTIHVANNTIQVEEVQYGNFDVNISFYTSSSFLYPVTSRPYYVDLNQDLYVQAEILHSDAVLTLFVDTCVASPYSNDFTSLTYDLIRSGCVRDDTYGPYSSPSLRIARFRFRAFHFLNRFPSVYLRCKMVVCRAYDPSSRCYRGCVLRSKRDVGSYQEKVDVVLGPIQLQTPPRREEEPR
T4 sequence (Q9UGM3 20-2413 T649M/G1295S/L1336F): as above

Substance: Degraded lambda-carrageenan
- Inhibitory effects on rDMBT1-mediated Streptococcus gordonii aggregation [1]: Inhibitory effects
- Aggregation of E. coli (DMBT1pbs1; substance 0.05 mg/ml): +++
- Aggregation of S. gordonii (DMBT1pbs1; substance 0.05 mg/ml): ++
- Aggregation of S. gordonii (DMBT1pbs1; substance 0.1 mg/ml): +
- Inhibitory effects on bacterial aggregation mediated by DMBT1-SRCRP2 (DMBT1-SRCRP2): Inhibitory effects
- direct interaction with human DMBT1 (competition and binding studies in vitro) (human rDMBT1): directly interacted

Substance: Dextran sulfate sodium [Dextran sulfate sodium (DSS)]
- Inhibitory effects on rDMBT1-mediated Streptococcus gordonii aggregation [1]: Inhibitory effects
- inhibition of rDMBT1 binding to immobilized HIV-gp120 [2]: exerted an inhibitory effect
- Aggregation of E. coli (DMBT1pbs1; substance 10-50 mg/ml): −
- Aggregation of S. gordonii (DMBT1pbs1; substance 10-50 mg/ml): −
- Inhibitory effects on bacterial aggregation mediated by DMBT1-SRCRP2 (DMBT1-SRCRP2): Inhibitory effects
- direct interaction with human DMBT1 (competition and binding studies in vitro) (human rDMBT1): directly interacted

Substance: lipopolysaccharide [LPS]
- binding to DMBT1 (DMBT1): showed binding to DMBT1

Substance: lipoteichoic acid [LTA]
- binding to DMBT1 (DMBT1): showed binding to DMBT1
